Tests used:
[1] = target: Phosphatidylinositol 5-phosphate 4-kinase type-2 gamma (Homo sapiens) (UniProt Q8TBX8); conditions: Compound concentration 1000.0 nM
[2] = target: D(2) dopamine receptor (Homo sapiens) (UniProt P14416); conditions: Compound concentration 10.0 uM
[3] = target: cAMP-dependent protein kinase catalytic subunit beta (Homo sapiens) (UniProt P22694); conditions: Compound concentration 1000.0 nM
[4] = tested on: Epidermal growth factor receptor (Homo sapiens), P00533 [L858R,T790M]; conditions: Compound concentration 1000.0 nM
[5] = target: Mitogen-activated protein kinase 8 (Homo sapiens) (UniProt P45983); conditions: Compound concentration 1000.0 nM
[6] = tested on: Epidermal growth factor receptor (Homo sapiens), P00533 [UNDEFINED MUTATION]; conditions: Compound concentration 1000.0 nM
[7] = tested on: Epidermal growth factor receptor (Homo sapiens), P00533 [UNDEFINED MUTATION]; conditions: Compound concentration 1000.0 nM; remark: listed apart in the source
[8] = target: Serine/threonine-protein kinase PAK 6 (Homo sapiens) (UniProt Q9NQU5); conditions: Compound concentration 1000.0 nM
[9] = target: Serine/threonine-protein kinase PAK 3 (Homo sapiens) (UniProt O75914); conditions: Compound concentration 1000.0 nM
[10] = target: Angiopoietin-1 receptor (Homo sapiens) (UniProt Q02763); conditions: Compound concentration 1000.0 nM
[11] = target: STE20-like serine/threonine-protein kinase (Homo sapiens) (UniProt Q9H2G2); conditions: Compound concentration 1000.0 nM
[12] = target: Serine/threonine-protein kinase TAO2 (Homo sapiens) (UniProt Q9UL54); conditions: Compound concentration 1000.0 nM
[13] = target: Interleukin-1 receptor-associated kinase 1 (Homo sapiens) (UniProt P51617); conditions: Compound concentration 1000.0 nM
[14] = target: Dual specificity mitogen-activated protein kinase kinase 4 (Homo sapiens) (UniProt P45985); conditions: Compound concentration 1000.0 nM
[15] = target: LIM domain kinase 1 (Homo sapiens) (UniProt P53667); conditions: Compound concentration 1000.0 nM
[16] = target: Serine/threonine-protein kinase 36 (Homo sapiens) (UniProt Q9NRP7); conditions: Compound concentration 1000.0 nM
[17] = target: Sigma intracellular receptor 2 (Homo sapiens, UniProt Q5BJF2); conditions: Compound concentration 10.0 uM
[18] = target: Wee1-like protein kinase (Homo sapiens) (UniProt P30291); conditions: Compound concentration 1000.0 nM
[19] = target: Serine/threonine-protein kinase Nek5 (Homo sapiens) (UniProt Q6P3R8); conditions: Compound concentration 1000.0 nM
[20] = target: Mitogen-activated protein kinase kinase kinase 14 (Homo sapiens) (UniProt Q99558); conditions: Compound concentration 1000.0 nM
[21] = target: Tyrosine-protein kinase ABL1 (Homo sapiens) (UniProt P00519); conditions: Compound concentration 1000.0 nM
[22] = target: Serine/threonine-protein kinase D2 (Homo sapiens) (UniProt Q9BZL6); conditions: Compound concentration 1000.0 nM
[23] = target: Serine/threonine-protein kinase TBK1 (Homo sapiens) (UniProt Q9UHD2); conditions: Compound concentration 1000.0 nM
[24] = target: Cyclin-dependent kinase 14 (Homo sapiens) (UniProt O94921); conditions: Compound concentration 1000.0 nM
[25] = target: Serine/threonine-protein kinase 32B (Homo sapiens) (UniProt Q9NY57); conditions: Compound concentration 1000.0 nM
[26] = target: Calcium/calmodulin-dependent protein kinase type 1B (Homo sapiens) (UniProt Q6P2M8); conditions: Compound concentration 1000.0 nM
[27] = tested on: Phosphatidylinositol 4,5-bisphosphate 3-kinase catalytic subunit alpha isoform (Homo sapiens), P42336 [E545K]; conditions: Compound concentration 1000.0 nM
[28] = target: BDNF/NT-3 growth factors receptor (Homo sapiens) (UniProt Q16620); conditions: Compound concentration 1000.0 nM
[29] = target: Calcium/calmodulin-dependent protein kinase type II subunit beta (Homo sapiens) (UniProt Q13554); conditions: Compound concentration 1000.0 nM
[30] = target: Microtubule-associated serine/threonine-protein kinase 1 (Homo sapiens) (UniProt Q9Y2H9); conditions: Compound concentration 1000.0 nM
[31] = target: Receptor tyrosine-protein kinase erbB-4 (Homo sapiens) (UniProt Q15303); conditions: Compound concentration 1000.0 nM
[32] = target: Phosphatidylinositol 3-kinase catalytic subunit type 3 (Homo sapiens) (UniProt Q8NEB9); conditions: Compound concentration 1000.0 nM
[33] = target: T1, Alpha-2A adrenergic receptor (Homo sapiens) (UniProt P08913); conditions: Compound concentration 10.0 uM
T1 sequence (whole entry): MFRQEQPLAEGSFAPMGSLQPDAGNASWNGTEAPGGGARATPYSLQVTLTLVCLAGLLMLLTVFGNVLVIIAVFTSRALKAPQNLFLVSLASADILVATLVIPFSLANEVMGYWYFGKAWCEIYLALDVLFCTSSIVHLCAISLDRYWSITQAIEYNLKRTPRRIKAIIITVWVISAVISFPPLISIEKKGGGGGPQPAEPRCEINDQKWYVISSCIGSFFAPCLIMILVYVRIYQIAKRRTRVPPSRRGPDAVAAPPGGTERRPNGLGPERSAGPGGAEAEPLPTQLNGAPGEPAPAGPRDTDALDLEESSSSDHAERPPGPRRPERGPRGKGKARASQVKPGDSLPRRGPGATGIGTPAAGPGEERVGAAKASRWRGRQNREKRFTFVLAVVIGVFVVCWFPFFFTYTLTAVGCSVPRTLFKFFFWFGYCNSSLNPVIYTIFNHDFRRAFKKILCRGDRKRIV

[34] = target: Interleukin-1 receptor-associated kinase 4 (Homo sapiens) (UniProt Q9NWZ3); conditions: Compound concentration 1000.0 nM
[35] = target: 5-hydroxytryptamine receptor 6 (Homo sapiens) (UniProt P50406); conditions: Compound concentration 10.0 uM
[36] = target: Serine/threonine-protein kinase ULK2 (Homo sapiens) (UniProt Q8IYT8); conditions: Compound concentration 1000.0 nM
[37] = target: Phosphatidylinositol 4,5-bisphosphate 3-kinase catalytic subunit delta isoform (Homo sapiens) (UniProt O00329); conditions: Compound concentration 1000.0 nM
[38] = target: Sigma non-opioid intracellular receptor 1 (Homo sapiens, UniProt Q99720); conditions: Compound concentration 10.0 uM

Serine/threonine-protein kinase 32B (Homo sapiens), sequence (Q9NY57 whole entry): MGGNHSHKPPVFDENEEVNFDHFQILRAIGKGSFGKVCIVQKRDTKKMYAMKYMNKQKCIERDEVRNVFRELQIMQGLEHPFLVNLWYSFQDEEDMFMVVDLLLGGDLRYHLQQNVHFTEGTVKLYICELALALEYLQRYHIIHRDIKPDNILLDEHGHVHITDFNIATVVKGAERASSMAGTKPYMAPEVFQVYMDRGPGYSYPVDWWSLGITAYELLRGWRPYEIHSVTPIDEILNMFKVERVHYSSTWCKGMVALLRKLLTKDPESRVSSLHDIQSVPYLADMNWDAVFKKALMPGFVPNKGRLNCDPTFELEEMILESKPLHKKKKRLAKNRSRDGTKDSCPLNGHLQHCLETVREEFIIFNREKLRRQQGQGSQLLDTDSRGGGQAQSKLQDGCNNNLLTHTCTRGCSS
Microtubule-associated serine/threonine-protein kinase 1 (Homo sapiens), sequence (Q9Y2H9 whole entry, looked up): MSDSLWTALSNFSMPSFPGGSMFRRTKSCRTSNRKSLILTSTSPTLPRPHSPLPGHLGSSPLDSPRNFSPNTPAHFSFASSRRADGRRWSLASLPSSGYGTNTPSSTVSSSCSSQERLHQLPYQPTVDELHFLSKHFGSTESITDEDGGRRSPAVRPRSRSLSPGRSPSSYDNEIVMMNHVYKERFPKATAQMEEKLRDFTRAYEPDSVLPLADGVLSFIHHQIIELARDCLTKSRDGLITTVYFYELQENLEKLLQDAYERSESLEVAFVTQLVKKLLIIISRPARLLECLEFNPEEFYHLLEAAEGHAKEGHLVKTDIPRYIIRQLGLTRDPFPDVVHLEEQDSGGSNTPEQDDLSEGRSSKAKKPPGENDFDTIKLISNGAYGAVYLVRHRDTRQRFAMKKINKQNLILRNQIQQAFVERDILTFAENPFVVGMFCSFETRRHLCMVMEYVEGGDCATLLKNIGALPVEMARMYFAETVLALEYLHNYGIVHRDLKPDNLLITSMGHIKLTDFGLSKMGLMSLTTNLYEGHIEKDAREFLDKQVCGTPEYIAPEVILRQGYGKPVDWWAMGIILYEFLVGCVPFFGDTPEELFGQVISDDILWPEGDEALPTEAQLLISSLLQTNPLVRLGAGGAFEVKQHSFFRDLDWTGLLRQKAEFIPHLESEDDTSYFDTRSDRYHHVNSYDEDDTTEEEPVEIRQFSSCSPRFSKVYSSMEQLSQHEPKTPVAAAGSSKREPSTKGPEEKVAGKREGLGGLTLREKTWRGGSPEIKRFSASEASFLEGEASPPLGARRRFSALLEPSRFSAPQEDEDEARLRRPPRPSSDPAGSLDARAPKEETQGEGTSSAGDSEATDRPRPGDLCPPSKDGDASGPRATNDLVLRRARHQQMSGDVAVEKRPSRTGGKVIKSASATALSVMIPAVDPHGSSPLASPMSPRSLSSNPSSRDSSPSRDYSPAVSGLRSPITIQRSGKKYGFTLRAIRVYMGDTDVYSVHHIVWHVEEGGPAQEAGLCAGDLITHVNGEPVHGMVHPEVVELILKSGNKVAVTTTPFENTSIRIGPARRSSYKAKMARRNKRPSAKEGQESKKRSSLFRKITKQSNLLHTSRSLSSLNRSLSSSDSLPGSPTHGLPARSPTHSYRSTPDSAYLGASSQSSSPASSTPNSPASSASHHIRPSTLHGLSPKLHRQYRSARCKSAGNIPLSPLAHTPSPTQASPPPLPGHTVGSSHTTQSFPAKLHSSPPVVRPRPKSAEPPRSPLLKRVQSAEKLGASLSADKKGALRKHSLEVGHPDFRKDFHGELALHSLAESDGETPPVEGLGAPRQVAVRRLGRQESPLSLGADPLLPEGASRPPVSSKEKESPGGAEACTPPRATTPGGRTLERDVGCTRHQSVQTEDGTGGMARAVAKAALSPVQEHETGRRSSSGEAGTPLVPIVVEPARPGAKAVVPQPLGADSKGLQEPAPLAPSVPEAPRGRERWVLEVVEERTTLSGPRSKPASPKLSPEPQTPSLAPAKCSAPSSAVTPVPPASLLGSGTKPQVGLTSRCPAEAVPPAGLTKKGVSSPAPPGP
LIM domain kinase 1 (Homo sapiens), sequence (P53667 whole entry, looked up, the tested form may be a part): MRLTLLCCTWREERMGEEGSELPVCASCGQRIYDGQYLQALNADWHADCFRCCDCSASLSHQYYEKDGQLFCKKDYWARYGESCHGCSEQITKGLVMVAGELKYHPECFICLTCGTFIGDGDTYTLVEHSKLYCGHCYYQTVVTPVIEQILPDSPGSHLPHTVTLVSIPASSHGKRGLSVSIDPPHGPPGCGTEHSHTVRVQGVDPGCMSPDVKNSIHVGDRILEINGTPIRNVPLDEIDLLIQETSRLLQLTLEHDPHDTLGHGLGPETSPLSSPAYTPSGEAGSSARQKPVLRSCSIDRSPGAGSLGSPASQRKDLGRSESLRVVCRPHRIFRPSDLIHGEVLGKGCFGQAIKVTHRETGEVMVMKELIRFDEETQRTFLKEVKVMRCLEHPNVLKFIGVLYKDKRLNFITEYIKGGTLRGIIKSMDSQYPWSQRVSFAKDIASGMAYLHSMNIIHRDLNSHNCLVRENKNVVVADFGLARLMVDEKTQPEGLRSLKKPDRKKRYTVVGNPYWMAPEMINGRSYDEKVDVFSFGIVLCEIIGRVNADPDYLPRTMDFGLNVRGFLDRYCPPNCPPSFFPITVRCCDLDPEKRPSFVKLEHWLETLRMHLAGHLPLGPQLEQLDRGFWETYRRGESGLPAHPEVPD
Phosphatidylinositol 5-phosphate 4-kinase type-2 gamma (Homo sapiens), sequence (Q8TBX8 whole entry): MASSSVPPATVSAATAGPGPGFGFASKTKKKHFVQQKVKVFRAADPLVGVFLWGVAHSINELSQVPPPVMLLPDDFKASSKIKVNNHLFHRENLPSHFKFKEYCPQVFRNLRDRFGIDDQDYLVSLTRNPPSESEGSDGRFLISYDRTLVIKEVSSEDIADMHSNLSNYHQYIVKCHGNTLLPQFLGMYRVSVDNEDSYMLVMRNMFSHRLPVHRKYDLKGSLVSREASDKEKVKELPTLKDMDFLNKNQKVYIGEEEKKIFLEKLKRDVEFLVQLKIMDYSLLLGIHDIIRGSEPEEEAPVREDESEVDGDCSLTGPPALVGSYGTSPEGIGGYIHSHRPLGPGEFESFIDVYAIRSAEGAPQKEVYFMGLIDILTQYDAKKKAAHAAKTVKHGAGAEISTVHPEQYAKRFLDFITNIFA
STE20-like serine/threonine-protein kinase (Homo sapiens), sequence (Q9H2G2 whole entry, looked up): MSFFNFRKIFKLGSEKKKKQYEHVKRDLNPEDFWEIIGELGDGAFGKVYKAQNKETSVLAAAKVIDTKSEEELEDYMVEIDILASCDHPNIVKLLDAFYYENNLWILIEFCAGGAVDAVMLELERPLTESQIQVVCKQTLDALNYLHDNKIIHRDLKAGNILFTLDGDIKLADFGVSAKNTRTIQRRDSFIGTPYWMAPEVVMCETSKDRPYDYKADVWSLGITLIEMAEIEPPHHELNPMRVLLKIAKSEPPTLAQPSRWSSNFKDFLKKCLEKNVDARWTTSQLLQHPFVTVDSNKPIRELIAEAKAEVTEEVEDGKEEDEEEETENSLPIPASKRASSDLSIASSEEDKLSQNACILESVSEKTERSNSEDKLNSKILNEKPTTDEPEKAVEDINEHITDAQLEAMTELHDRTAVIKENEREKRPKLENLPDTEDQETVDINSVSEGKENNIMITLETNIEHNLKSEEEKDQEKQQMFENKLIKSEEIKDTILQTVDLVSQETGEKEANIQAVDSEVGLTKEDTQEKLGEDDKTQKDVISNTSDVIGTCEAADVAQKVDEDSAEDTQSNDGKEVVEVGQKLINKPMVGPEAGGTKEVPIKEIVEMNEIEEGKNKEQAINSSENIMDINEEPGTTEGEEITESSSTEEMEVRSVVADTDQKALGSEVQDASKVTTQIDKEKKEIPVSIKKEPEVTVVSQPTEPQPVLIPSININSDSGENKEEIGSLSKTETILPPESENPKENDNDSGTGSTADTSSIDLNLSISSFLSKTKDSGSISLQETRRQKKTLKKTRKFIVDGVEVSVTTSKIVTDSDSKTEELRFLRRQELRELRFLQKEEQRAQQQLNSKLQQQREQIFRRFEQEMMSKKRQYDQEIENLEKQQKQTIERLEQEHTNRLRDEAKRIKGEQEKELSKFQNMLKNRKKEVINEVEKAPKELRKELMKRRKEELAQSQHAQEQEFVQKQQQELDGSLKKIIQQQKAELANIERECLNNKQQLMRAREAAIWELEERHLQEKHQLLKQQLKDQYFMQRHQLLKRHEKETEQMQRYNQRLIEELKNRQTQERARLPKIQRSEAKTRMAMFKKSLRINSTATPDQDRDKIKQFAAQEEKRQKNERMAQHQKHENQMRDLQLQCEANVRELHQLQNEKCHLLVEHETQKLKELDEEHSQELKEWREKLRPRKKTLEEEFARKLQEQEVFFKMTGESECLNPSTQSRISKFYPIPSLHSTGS
Serine/threonine-protein kinase TBK1 (Homo sapiens), sequence (Q9UHD2 whole entry): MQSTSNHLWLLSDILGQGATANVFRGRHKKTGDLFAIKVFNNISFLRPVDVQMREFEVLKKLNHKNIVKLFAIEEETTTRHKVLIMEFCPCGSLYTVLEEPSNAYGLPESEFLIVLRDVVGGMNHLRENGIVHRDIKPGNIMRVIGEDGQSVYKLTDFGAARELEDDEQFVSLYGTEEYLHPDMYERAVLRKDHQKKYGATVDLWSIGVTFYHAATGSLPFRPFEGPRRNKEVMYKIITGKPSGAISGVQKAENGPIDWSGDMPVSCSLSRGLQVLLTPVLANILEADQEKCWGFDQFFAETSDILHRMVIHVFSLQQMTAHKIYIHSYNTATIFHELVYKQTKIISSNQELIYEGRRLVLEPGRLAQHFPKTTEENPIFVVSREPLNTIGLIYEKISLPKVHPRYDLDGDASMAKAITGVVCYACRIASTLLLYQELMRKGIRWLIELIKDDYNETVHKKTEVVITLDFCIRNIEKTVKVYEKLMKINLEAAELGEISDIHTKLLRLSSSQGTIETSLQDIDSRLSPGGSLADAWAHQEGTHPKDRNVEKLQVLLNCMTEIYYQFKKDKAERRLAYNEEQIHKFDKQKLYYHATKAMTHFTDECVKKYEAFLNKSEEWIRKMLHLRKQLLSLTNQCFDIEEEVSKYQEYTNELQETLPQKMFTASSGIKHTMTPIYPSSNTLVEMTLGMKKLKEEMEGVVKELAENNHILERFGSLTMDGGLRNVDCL

Question: Which results are given for O=C(Nc1cccnn1)N1CCC(=Cc2cccc(Oc3ccc(C(F)(F)F)cn3)c2)CC1?
Answer: residual activity [1]: 75%; inhibition [2]: 1.84%; residual activity [3]: 100%; residual activity [4]: 99%; residual activity [5]: 100%; residual activity [6]: 69%; residual activity [7]: 83%; residual activity [8]: 100%; residual activity [9]: 73%; residual activity [10]: 94%; residual activity [11]: 74%; residual activity [12]: 100%; residual activity [13]: 100%; residual activity [14]: 100%; residual activity [15]: 88%; residual activity [16]: 100%; inhibition [17]: 91.3%; residual activity [18]: 97%; residual activity [19]: 97%; residual activity [20]: 100%; residual activity [21]: 93%; residual activity [22]: 94%; residual activity [23]: 100%; residual activity [24]: 89%; residual activity [25]: 82%; residual activity [26]: 100%; residual activity [27]: 100%; residual activity [28]: 100%; residual activity [29]: 89%; residual activity [30]: 100%; residual activity [31]: 100%; residual activity [32]: 100%; inhibition [33]: 34.5%; residual activity [34]: 97%; inhibition [35]: 40.6%; residual activity [36]: 100%; residual activity [37]: 81%; inhibition [38]: 88.5%

Question: O=C(Nc1cccnn1)N1CC(C/C=C/c2cncc(Oc3ccc(C(F)(F)F)cn3)n2)C1 was tested. Which residual activity [1] did it give?
Answer: Its residual activity is 100%.

Question: And the inhibition [2]?
Answer: The inhibition was 13.7%.

Question: What about the residual activity [3] of the same molecule?
Answer: Its residual activity is 100%.

Question: And the residual activity [4]?
Answer: Its residual activity is 82%.

Question: What about the residual activity [5] of the same molecule?
Answer: Its residual activity is 75%.

Question: What about the residual activity [6] of the same molecule?
Answer: The residual activity was 100%.

Question: What about the residual activity [7] of the same molecule?
Answer: Its residual activity is 100%.

Question: What about the residual activity [8] of the same molecule?
Answer: The residual activity was 100%.

Question: And the residual activity [9]?
Answer: The residual activity was 100%.

Question: And the residual activity [10]?
Answer: Its residual activity is 84%.

Question: What about the residual activity [11] of the same molecule?
Answer: The residual activity was 100%.

Question: And the residual activity [12]?
Answer: The residual activity was 66%.

Question: What about the residual activity [13] of the same molecule?
Answer: The residual activity was 66%.

Question: And the residual activity [14]?
Answer: Its residual activity is 74%.

Question: And the residual activity [15]?
Answer: Its residual activity is 88%.

Question: What about the residual activity [16] of the same molecule?
Answer: The residual activity was 100%.

Question: What about the inhibition [17] of the same molecule?
Answer: Its inhibition is 69%.

Question: And the residual activity [18]?
Answer: Its residual activity is 100%.

Question: What about the residual activity [19] of the same molecule?
Answer: Its residual activity is 100%.

Question: And the residual activity [20]?
Answer: The residual activity was 77%.

Question: What about the residual activity [21] of the same molecule?
Answer: The residual activity was 82%.

Question: And the residual activity [22]?
Answer: Its residual activity is 100%.

Question: And the residual activity [23]?
Answer: The residual activity was 72%.

Question: And the residual activity [24]?
Answer: The residual activity was 100%.

Question: And the residual activity [25]?
Answer: The residual activity was 100%.

Question: And the residual activity [26]?
Answer: The residual activity was 63%.

Question: And the residual activity [27]?
Answer: The residual activity was 81%.

Question: What about the residual activity [28] of the same molecule?
Answer: Its residual activity is 77%.

Question: And the residual activity [29]?
Answer: The residual activity was 100%.

Question: What about the residual activity [30] of the same molecule?
Answer: The residual activity was 58%.

Question: What about the residual activity [31] of the same molecule?
Answer: Its residual activity is 100%.

Question: And the residual activity [32]?
Answer: The residual activity was 88%.

Question: What about the inhibition [33] of the same molecule?
Answer: Its inhibition is 0.68%.

Question: And the residual activity [34]?
Answer: The residual activity was 100%.

Question: And the inhibition [35]?
Answer: The inhibition was 7.76%.

Question: And the residual activity [36]?
Answer: Its residual activity is 73%.

Question: What about the residual activity [37] of the same molecule?
Answer: The residual activity was 64%.

Question: And the inhibition [38]?
Answer: Its inhibition is 32.2%.
